In ChEMBL document CHEMBL4513161, “CO-ADD screening of MMV (CH) - Pandemic Response Box” (2021) one finds MIC and CC50 data, which are given here for 4 compounds.

One may read the MIC as the lowest concentration found to suppress growth. A high value points to weaker potency. One may read the CC50 as the concentration giving 50% cytotoxicity.

Experiment [1] deals with Pseudomonas aeruginosa. Conditions: ASSAY_TEST Inhibition of Bacterial Growth; detection method Absorption (OD600); MEDIA CAMHB; plate type 384well; NBS; CORNING #3640; time 18 hr.
Description: Antibacterial activity against Pseudomonas aeruginosa ATCC 27853 (CO-ADD:GN_042); MIC in CAMBH media using NBS plates, by OD(600)
Experiment [2] relates to HEK293. As to the kind of experiment: cells. Format: functional, Homo sapiens, ATCC CRL1573. The settings on record: ASSAY_TEST Inhibition of Cell Viability, detection method Resazurin, Fluorescence (ex560/em590), MEDIA DMEM with 10% FBS, plate type 384well, TC, CORNING #3712, time 18 hr, read-out: CC50. Background: Resazurin is reduced to fluorescent resorufin, in cell work by metabolically active cells.

For experiment [3], the system named is Klebsiella pneumoniae. The settings on record: ASSAY_TEST Inhibition of Bacterial Growth; detection method Absorption (OD600); MEDIA CAMHB; plate type 384well; NBS; CORNING #3640; time 18 hr.
Description: Antibacterial activity against Klebsiella pneumoniae MDR ATCC 70063 (CO-ADD:GN_003); MIC in CAMBH media using NBS plates, by OD(600)
Experiment [4] deals with Cryptococcus neoformans.
Description: Antifungal activity against Cryptococcus neoformans H99 ATCC 208821 (CO-ADD:FG_002); MIC in YNB media using NBS plates, by Resazurin OD(600-570)
Experiment [5] has as its system Candida albicans. Conditions: ASSAY_TEST Inhibition of Fungal Growth; detection method Absorption (OD530); plate type 384well; NBS; CORNING #3640.
Description: Antifungal activity against Candida albicans ATCC 90028 (CO-ADD:FG_001); MIC in YNB media using NBS plates, by OD630
Experiment [6] has as its system Acinetobacter baumannii. Conditions: ASSAY_TEST Inhibition of Bacterial Growth; detection method Absorption (OD600); MEDIA CAMHB; plate type 384well; NBS; CORNING #3640; time 18 hr.
Description: Antibacterial activity against Acinetobacter baumannii ATCC 19606 (CO-ADD:GN_034); MIC in CAMBH media using NBS plates, by OD600
Experiment [7] concerns Pseudomonas aeruginosa. As to the kind of experiment: Antibacterial activity against Pseudomonas aeruginosa PAO397 [PAO1 d(mexAB-oprM) d(mexCD-oprJ) d(mexEF-oprN) d(mexJKL) d(mexXY) d(opmH)] (CO-ADD:GN_211); MIC in CAMBH media using NBS plates, by OD(600). The class given is functional. The settings on record: ASSAY_TEST Inhibition of Bacterial Growth, detection method Absorption (OD600), MEDIA CAMHB, plate type 384well, CORNING #3640, time 18 hr.

The test system of experiment [8] is Staphylococcus aureus. Conditions: ASSAY_TEST Inhibition of Bacterial Growth; detection method Absorption (OD600); MEDIA CAMHB; plate type 384well; NBS; CORNING #3640; time 18 hr.
Description: Antibacterial activity against Staphylococcus aureus MRSA ATCC 43300 (CO-ADD:GP_020); MIC in CAMBH media, using NBS plates, by OD(600)
Experiment [9] relates to Escherichia coli. Conditions: ASSAY_TEST Inhibition of Bacterial Growth; detection method Absorption (OD600); MEDIA CAMHB; plate type 384well; NBS; CORNING #3640; time 18 hr.
Description: Antibacterial activity against Escherichia coli ATCC 25922 (CO-ADD:GN_001); MIC in CAMBH media using NBS plates, by OD(600)

In brackets after ≈: the same amount, converted by molar mass.

As to `C[C@H]1COc2c(N3CCN(C)CC3)c(F)cc3c(=O)c(C(=O)O)cn1c23.C[C@H]1COc2c(N3CCN(C)CC3)c(F)cc3c(=O)c(C(=O)O)cn1c23.O` [LEVOFLOXACIN], the MIC is 2.5 µM in experiment [1]; 5 µM in [3]; greater than 20 µM in experiment [4]; greater than 20 µM in experiment [5]; 10 µM in experiment [6]; no more than 0.156 µM in experiment [7]. Further, the minimal inhibitory concentration (MIC) in experiment [8] was 2.5 µM; in experiment [9], “<=0.1562 uM”. Moreover, the half-maximal cytotoxic concentration (CC50) in experiment [2] is greater than 20 µM.

Consider `CC(=O)Oc1ccccc1C(=O)Nc1ncc([N+](=O)[O-])s1` [NITAZOXANIDE], for which the MIC in experiment [1], in [3], in experiment [4], in experiment [5], in experiment [6] and in experiment [7] was greater than 20 µM throughout. Further, the MIC in [8] and in experiment [9] was greater than 20 µM throughout. For the same compound, the cytotoxic concentration (CC50) in experiment [2] (Homo sapiens, ATCC CRL1573, HEK293) came to 8.59 µM.

In the case of `CC(=O)NC[C@H]1CN(c2ccc(N3CCSCC3)c(F)c2)C(=O)O1` [SUTEZOLID], the minimum inhibitory concentration (MIC) in [1] was greater than 20 µM; in experiment [3], greater than 20 µM; in experiment [4], greater than 20 µM; in [5] it was greater than 20 µM; in experiment [6], greater than 20 µM; in experiment [7], 20 µM (≈ 7.07 µg/mL). Further, the minimum inhibitory concentration (MIC) was 5 µM (≈ 1.77 µg/mL) in [8] and greater than 20 µM in experiment [9]. The CC50 in [2] was greater than 20 µM.

Take `COc1cc(Cc2cnc(N)nc2N)cc(OC)c1OC` [TRIMETHOPRIM]: the minimum inhibitory concentration (MIC) was 20 µM (≈ 5.81 µg/mL) in experiment [1]; 5 µM (≈ 1.45 µg/mL) in experiment [3]; greater than 20 µM in [4]; greater than 20 µM in experiment [5]; greater than 20 µM in experiment [6]; 5 µM (≈ 1.45 µg/mL) in experiment [7]. Moreover, the minimum inhibitory concentration (MIC) in experiment [8] stood at 5 µM (≈ 1.45 µg/mL); in experiment [9] it was 2.5 µM (≈ 0.726 µg/mL). In experiment [2], the CC50 is greater than 20 µM.
